Reference: ChEMBL document CHEMBL1149735, “Stereoselective synthesis and antimalarial activity of alpha-artelinic acid from artemisinin” (J Nat Prod, 1992)
The source made the active and inactive calls. No cut-off for these calls is given here.

Experiments:
[1] = Toxicity in Swiss mouse; assay type: organism-based; conditions: in vivo
Plasmodium knowlesi [2] = assay: Antimalarial activity as parasite elimination after 24 hrs against Plasmodium knowlesi infected Rhesus monkey at 30 mg/kg intravenous dose; assay type: functional, organism-based; set-up: dose 30 mg/kg
Plasmodium knowlesi [3] = assay: Antimalarial activity as parasite elimination up to day 50 against Plasmodium knowlesi infected Rhesus monkey at 30 mg/kg intravenous dose over 3 days; assay type: functional, organism-based; set-up: dose 30 mg/kg
Plasmodium knowlesi [4] = assay: Antimalarial activity as cures at day 50 in Plasmodium knowlesi infected Rhesus monkey assessed at 15 mg/kg intravenous dose for 3 days; assay type: functional, organism-based; set-up: dose 15 mg/kg

## C[C@@H]1[C@H](OCc2ccc(C(=O)O)cc2)O[C@@H]2O[C@@]3(C)CC[C@@H]4[C@@H](C)CC[C@@H]1[C@]24OO3 [ARTELINIC ACID]
[1]
  LD50: 1000 mg/kg
Plasmodium knowlesi [2]
  Activity: Active
Plasmodium knowlesi [3]
  Activity: Active
Plasmodium knowlesi [4]
  Activity: inactive
